Results on 3 molecules are retold here after patent publication US7906502B2, “2-azetidinone derivatives as cholesterol absorption inhibitors for the treatment of hyperlipidaemic conditions” (AstraZeneca AB, priority 2005, dated 2011).

A short description of data set [1]: Absorption in a Caco-2 cells model. Format: in vitro ADME. As to conditions: human. The method, then:
Absorption of the compounds of formula (I) was tested in a Caco-2 cells model (Gastroenterology 1989, 96, 736): […]

For data set [2], the system named is 14C-cholesterol absorption. Nature of the data set: In vivo testing of cholesterol absorption inhibitors (A). More on the design: species or system C57BL/6 female mice. Particulars: 0.2 μmol/kg, gavage, procedure A, mice. How it is done:
In vivo Testing of Cholesterol Absorption Inhibitors (A)
C57BL/6 female mice were maintained on regular chow diet and housed in individual cages to collect faeces. Mice were fasted for 3 hours and then gavaged with vehicle or compound. Half an hour later the mice were gavaged with radiolabelled cholesterol. Six hours after the ^14C-cholesterol gavage blood samples were taken via the tail and plasma prepared to determine how much cholesterol were absorbed. 24 hours after the gavage of ^14C-cholesterol the mice were bled and plasma were prepared for analysis. Faeces were collected for 24 hours to assess absorption efficiency.

As to `CC(C)(C)[C@@H](NC(=O)CNC(=O)COc1ccc([C@@H]2[C@@H](SCC(O)c3ccc4c(c3)OCCO4)C(=O)N2c2ccc(F)cc2)cc1)C(=O)O` (stereo partly drawn) [Example 1, N-({4-[(2R,3R)-3-{[2-(2,3-dihydro-1,4-benzodioxin-6-yl)-2-hydroxyethyl]thio}-1-(4-fluorophenyl)-4-oxoazetidin-2-yl]phenoxy}acetyl)glycyl-3-methyl-D-valine], the Papp (in general, a coefficient for how fast a substance crosses the barrier) in data set [1] was found to be 0.02 ×10⁻⁶ cm/s. Also, the “inhibition of 14C-cholesterol absorption” value in data set [2] worked out at 61%. As for `O=C(COc1ccc([C@@H]2[C@@H](SCC(O)c3ccc4c(c3)OCO4)C(=O)N2c2ccc(F)cc2)cc1)NCC(=O)N[C@H](CC1CCCCC1)C(=O)O` (single isomer, unassigned) [Example 13, N-({4-[(2R,3R)-3-{[(2R or S)-2-(1,3-benzodioxol-5-yl)-2-hydroxyethyl]thio}-1-(4-fluorophenyl)-4-oxoazetidin-2-yl]phenoxy}acetyl)glycyl-3-cyclohexyl-D-alanine], the Papp in data set [1] turned out to be 0.05 ×10⁻⁶ cm/s. Regarding `CC(C)(C)[C@@H](NC(=O)CNC(=O)COc1ccc([C@@H]2[C@@H](SCC(O)c3ccc4c(c3)OCO4)C(=O)N2c2ccc(F)cc2)cc1)C(=O)O` (stereo partly drawn) [Example 3, N-({4-[(2R,3R)-3-{[2-(1,3-Benzodioxol-5-yl)-2-hydroxyethyl]thio}-1-(4-fluorophenyl)-4-oxoazetidin-2-yl]phenoxy}acetyl)glycyl-3-methyl-D-valine], the “inhibition of 14C-cholesterol absorption” value in data set [2] amounted to 67%.
